According to patent US20220265785A1, “COMPOSITION FOR PREVENTING OR TREATING URIC ACID-RELATED DISEASE” (GUANGZHOU CENTURY CLINICAL RESEARCH CO., LTD, priority 2019, published 2022):

Assays:
[1] = tested on: patient with hyperuricemia accompanied by gout; test: Lysozyme enteric tablets in patient with hyperuricemia accompanied by gout; format: in vivo, human; conditions: same patient before lysozyme; serum uric acid remained at 700 μmol/L or more
Source text: The administration of lysozyme enteric tablets (produced by Xiangbei Welman Pharmaceutical Co., Ltd.) by two patients with hyperuricemia is described below to specifically illustrate the present disclosure.
A person suffering from gout had obvious redness, swelling and pain in the ankles and toes, and difficulty in walking. […] The lysozyme enteric tablets were tried daily (once in the morning, once at noon and once in the evening, 2 g each time). One month later, they felt that the frequency of pain episodes decreased and the difficulty in walking was alleviated.

[2] = tested on: hyperuricemia model animals; test: Effect on serum uric acid level of hyperuricemia model rats (potassium oxonate + uric acid); format: in vivo, SD rats; conditions: for Serum uric acid content, Day 0: Day 0, before modeling and before drug, 8 rats; for Serum uric acid content, Day 0 / Serum uric acid content, Day 12 / Serum uric acid content, Day 18: X ± SD; for Serum uric acid content, Day 12: Day 12, after modeling, before drug (dosing from D13)
Source text: (§1) Lysozyme granules, enteric lysozyme granules, and benzbromarone fine granules. Each test drug was moistened and uniformly mixed with 0.5% sodium carboxymethylcellulose for easy administration.
(§2) SD rats. The rats had free access to drinking water and food, and they were adaptively reared for one week before test.
(§3) Except for rats in the blank group, the other rats were modeled for 12 days, and the serum uric acid level of each rat was detected. Then the rats were evenly divided into groups according to the uric acid level of each rat, with 8 animals in each group.
(§4) Lysozyme groups and enteric lysozyme groups: High and low doses of the lysozyme granules and enteric lysozyme granules were respectively taken orally, and the dosages were 10 mg/kg and 30 mg/kg based on the active ingredient, once a day.
(§5) Benzbromarone group: The benzbromarone fine granules were taken orally at a dose of 30 mg/kg based on the active ingredient, once a day.
(§6) The test was carried out for a total of 18 days.
(§7) On day 1 of the test, except for the animals in the blank group, the animals in the other groups were orally given a modeling agent (1.5 g/kg potassium oxonate +0.3 g/kg uric acid, dissolved in 0.5% sodium carboxymethylcellulose) once to start modeling, and thereafter, the same amount of the modeling agent was administrated at the same time every day. 0.5 ml of blood was taken from the orbit before the start of the test (DO) and on day 12
(§8) (D12) of the test, respectively, and centrifuged, then the serum was taken and tested for serum uric acid level using a uric acid assay kit and a microplate reader; in addition, 0.5 g of fresh midsection rat feces were taken, diluted and uniformly mixed with four times volume of phosphate buffer, centrifuged, ultrasonically mixed until uniform, incubated at 100° C. for 40 minutes, cooled and then centrifuged, and the supernatant was taken and tested for fecal uric acid level using the uric acid assay kit and the microplate reader.
(§9) Thereafter, the rats were grouped according to the serum uric acid value of each rat. From day 13 (D13), each rat was given the test drug intragastrically every day, as well as the modeling agent every day. The interval between the administration of the test drug and the administration of the modeling agent was more than 1 hour. The drug administration was stopped after day 18 (D18) of the test, and the serum uric acid levels and fecal uric acid levels were determined according to the previous method.

[3] = tested on: hyperuricemia model animals; test: Effect on fecal uric acid level of hyperuricemia model rats (potassium oxonate + uric acid); format: in vivo, SD rats; conditions: for Fecal uric acid content, Day 0: Day 0, before modeling and before drug; for Fecal uric acid content, Day 0 / Fecal uric acid content, Day 12 / Fecal uric acid content, Day 18: X ± SD; for Fecal uric acid content, Day 12: Day 12, after modeling, before drug; for Fecal uric acid levels compared with the model control group: day 18
Source text: as §1, §2, §3, §4, §5, §6, §7, §8, §9

[4] = 10 mg/kg oral once a day D13-D18
[5] = 30 mg/kg oral once a day D13-D18

Compound	Effects of past use to relieve pain and reduce uric acid [1]	Serum uric acid content, Day 0 ([2]; 10 mg/kg group) [µmol/L]	Serum uric acid content, Day 12 ([2]; 10 mg/kg group) [µmol/L]	Serum uric acid content, Day 18 [2, 4] [µmol/L]	Serum uric acid content, Day 0 ([2]; 30 mg/kg group) [µmol/L]	Serum uric acid content, Day 12 ([2]; 30 mg/kg group) [µmol/L]	Serum uric acid content, Day 18 [2, 5] [µmol/L]	Serum uric acid levels compared with the model control group ([2]; day 18)	Fecal uric acid content, Day 0 ([3]; 10 mg/kg group) [mmol/L]	Fecal uric acid content, Day 12 ([3]; 10 mg/kg group) [mmol/L]	Fecal uric acid content, Day 18 [3, 4] [mmol/L]	Fecal uric acid content, Day 0 ([3]; 30 mg/kg group) [mmol/L]	Fecal uric acid content, Day 12 ([3]; 30 mg/kg group) [mmol/L]	Fecal uric acid content, Day 18 [3, 5] [mmol/L]	Fecal uric acid levels compared with the model control group [3]
Oc1ncnc2[nH]ncc12 [allopurinol]	not good	–	–	–	–	–	–	–	–	–	–	–	–	–	–
Lysozyme: Homemade granules: lysozyme with a potency of more than 20000 U/mg mixed with the same amount of starch, granulated with water	–	43.66 ± 4.16	122.12 ± 10.27	161.97 ± 22.11	40.49 ± 3.33	120.79 ± 17.64	149.76 ± 20.12	significantly lower	0.98 ± 0.13	1.26 ± 0.24	1.84 ± 0.20	1.15 ± 0.16	1.24 ± 0.20	1.98 ± 0.20	significantly higher
CC(C)Cc1ccc(C(C)C(=O)O)cc1 (centres unmarked) [ibuprofen]	not good	–	–	–	–	–	–	–	–	–	–	–	–	–	–
CCc1oc2ccccc2c1C(=O)c1cc(Br)c(O)c(Br)c1 [Benzbromarone, reference compound]	–	–	–	–	41.02 ± 3.71	117.14 ± 17.74	153.45 ± 26.17	–	–	–	–	1.12 ± 0.17	1.25 ± 0.31	1.34 ± 0.31	did not increase significantly
